Reference: ChEMBL document CHEMBL1201862, “PubChem BioAssay data set” (2004)
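These data come from cells grown in 96-well plates and exposed to compound for 48 hours at five concentrations. Abbreviation: GI50, concentration required for 50% inhibition of growth.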 Active and inactive are the calls of the source. No stated cut-off is given here; in the data, active = GI50 up to about 1.1 µM and inactive = higher.

Key:
Experiment in all cases: inhibition of tumour cell growth, NCI panel, 48 h
[1] = tested on: A498
[2] = tested on: A549
[3] = tested on: DMS-114
[4] = tested on: DMS-273
[5] = tested on: HOP-92
[6] = tested on: M19-MEL
[7] = tested on: Malme-3M
[8] = tested on: NCI-H460
[9] = tested on: SK-MEL-2
[10] = tested on: SNB-19
[11] = tested on: SNB-78
[12] = tested on: U-251
[13] = tested on: ACHN
[14] = tested on: SR

Measured: GI50

COc1ccc(C2CC(c3sc(Nc4ccc(C)cc4)nc3C)=NN2)cc1 (stereo unspecified)
inactive: [1] 15.4 µM | [2] 15.6 µM | [3] 14.1 µM | [4] 18.8 µM | [5] 14.2 µM | [6] > 44.1 µM | [7] > 10 µM | [8] 14.9 µM | [9] 15.8 µM | [10] 15.7 µM | [11] 22.1 µM | [12] 14.8 µM

O=P(CCOc1ccccc1OCCP(=O)(c1ccccc1)c1ccc2c(c1)OCCOCCOCCOCCO2)(c1ccccc1)c1ccc2c(c1)OCCOCCOCCOCCO2 (stereo unspecified)
inactive: [1] > 100 µM | [2] > 100 µM | [13] > 100 µM | [3] > 100 µM | [4] > 100 µM | [5] > 100 µM | [6] > 100 µM | [7] > 100 µM | [8] > 100 µM | [9] > 100 µM | [10] > 100 µM | [11] > 100 µM | [14] > 100 µM | [12] > 100 µM

O=NN(CCCl)C(=O)N[C@H]1CC[C@H](C(=O)O)CC1
inactive: [1] > 100 µM | [2] > 100 µM | [3] 22.8 µM | [4] > 100 µM | [5] > 100 µM | [6] > 100 µM | [7] 94.8 µM | [8] 44.6 µM | [9] > 100 µM | [10] > 61.1 µM | [11] > 100 µM | [12] 35.8 µM

CON(C)C(=O)C(Cc1ccccc1)NC(=O)OCc1ccccc1 (stereo unspecified)
inactive: [1] > 100 µM | [2] > 100 µM | [13] > 100 µM | [3] 58.9 µM | [4] > 100 µM | [5] > 100 µM | [6] > 100 µM | [7] 75.5 µM | [8] > 100 µM | [9] > 100 µM | [10] > 100 µM | [11] > 100 µM | [14] > 100 µM | [12] > 100 µM

C=C1C(=O)C[C@@]23CCC[C@@]12CC(OCOC)C3 (stereo partly specified)
inactive: [1] 4.69 µM | [2] 13.5 µM | [3] 1.91 µM | [4] 2.4 µM | [5] 2.32 µM | [6] 3.59 µM | [7] 2.84 µM | [8] 2.74 µM | [9] 4.16 µM | [10] 14.6 µM | [11] 4.8 µM | [12] 8.47 µM

NC(=O)c1ncn2c1NC(=O)CC2
inactive: [1] > 100 µM | [2] > 100 µM | [3] > 100 µM | [4] > 100 µM | [5] > 100 µM | [6] > 100 µM | [7] > 100 µM | [8] > 100 µM | [9] > 100 µM | [10] > 100 µM | [11] > 45.3 µM | [12] > 100 µM
